# What was measured:
# Histone deacetylase 1 [1] = target: T1, Histone deacetylase 1 (Homo sapiens, UniProt Q13547); conditions: dose 100.0 nM, time 40.0 min
# [2] = target: T2, Protein deacetylase HDAC6 (Homo sapiens) (UniProt Q9UBN7); conditions: Sf9, dose 100.0 nM, time 40.0 min
# T2 sequence (whole entry): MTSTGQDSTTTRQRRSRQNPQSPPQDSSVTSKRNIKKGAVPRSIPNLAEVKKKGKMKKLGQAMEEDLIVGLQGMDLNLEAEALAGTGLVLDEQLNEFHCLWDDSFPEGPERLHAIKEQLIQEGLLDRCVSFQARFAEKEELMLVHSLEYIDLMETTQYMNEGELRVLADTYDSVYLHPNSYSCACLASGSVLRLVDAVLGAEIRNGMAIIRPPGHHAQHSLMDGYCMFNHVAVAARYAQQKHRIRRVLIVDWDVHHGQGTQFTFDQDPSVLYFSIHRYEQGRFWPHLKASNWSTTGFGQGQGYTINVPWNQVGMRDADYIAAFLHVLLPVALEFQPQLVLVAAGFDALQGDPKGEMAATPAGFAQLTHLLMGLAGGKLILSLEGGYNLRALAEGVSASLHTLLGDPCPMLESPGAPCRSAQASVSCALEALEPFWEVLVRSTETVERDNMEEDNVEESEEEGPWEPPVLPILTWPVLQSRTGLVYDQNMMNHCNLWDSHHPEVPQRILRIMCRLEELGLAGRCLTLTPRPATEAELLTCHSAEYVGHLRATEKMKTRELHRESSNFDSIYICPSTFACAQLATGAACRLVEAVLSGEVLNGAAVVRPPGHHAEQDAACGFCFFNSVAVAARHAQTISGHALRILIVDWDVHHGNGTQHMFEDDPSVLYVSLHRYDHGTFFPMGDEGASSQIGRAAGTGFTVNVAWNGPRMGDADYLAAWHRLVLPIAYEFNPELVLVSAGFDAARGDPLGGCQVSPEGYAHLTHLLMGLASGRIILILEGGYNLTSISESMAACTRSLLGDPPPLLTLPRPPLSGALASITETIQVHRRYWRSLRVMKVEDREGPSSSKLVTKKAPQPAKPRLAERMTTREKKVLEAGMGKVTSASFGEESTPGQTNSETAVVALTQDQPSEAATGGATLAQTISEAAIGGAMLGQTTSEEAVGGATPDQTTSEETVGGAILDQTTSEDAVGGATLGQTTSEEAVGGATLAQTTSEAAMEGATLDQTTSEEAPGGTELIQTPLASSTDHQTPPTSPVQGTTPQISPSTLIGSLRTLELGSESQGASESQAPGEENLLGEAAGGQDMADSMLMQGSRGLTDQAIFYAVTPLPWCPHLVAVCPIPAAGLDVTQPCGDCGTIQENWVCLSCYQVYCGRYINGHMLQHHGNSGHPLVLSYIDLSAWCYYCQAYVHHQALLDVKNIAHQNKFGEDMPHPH
# [3] = target: T3, Protein deacetylase HDAC6 (Homo sapiens, UniProt Q9UBN7); experiment: Inhibition of recombinant full length human HDAC6 expressed in baculovirus infected Sf9 cells using Z-(Ac)-Lys-AMC as substrate incubated for 40 mins by fluorescence based assay
# T3 sequence (Q9UBN7 whole entry): T2 sequence (whole entry)
# MGC-803 = experiment: Antiproliferative activity against human MGC803 cells incubated for 72 hrs by MTT assay; format: functional, cell-based; conditions: MGC-803, 72 h
# Histone deacetylase 1 [4] = target: T1, Histone deacetylase 1; experiment: Inhibition of recombinant human HDAC1 using Z-(Ac)-Lys-AMC as substrate incubated for 40 mins by fluorescence based assay
# T1 sequence (Q13547 whole entry): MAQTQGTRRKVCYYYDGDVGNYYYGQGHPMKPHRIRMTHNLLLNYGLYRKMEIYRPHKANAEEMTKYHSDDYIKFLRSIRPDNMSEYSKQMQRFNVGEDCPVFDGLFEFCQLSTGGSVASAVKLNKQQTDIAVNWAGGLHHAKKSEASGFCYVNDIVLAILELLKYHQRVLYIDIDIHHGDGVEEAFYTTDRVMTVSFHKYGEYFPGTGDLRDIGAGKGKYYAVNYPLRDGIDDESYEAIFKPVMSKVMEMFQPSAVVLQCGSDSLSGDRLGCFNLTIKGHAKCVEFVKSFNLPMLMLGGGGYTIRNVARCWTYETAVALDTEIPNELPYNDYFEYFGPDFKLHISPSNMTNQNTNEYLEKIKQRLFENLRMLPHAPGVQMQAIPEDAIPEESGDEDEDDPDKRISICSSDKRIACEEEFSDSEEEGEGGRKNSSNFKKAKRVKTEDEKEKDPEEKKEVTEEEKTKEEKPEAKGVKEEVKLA
inhibition (Histone deacetylase 1 [1]),inhibition [2],IC50 [3],IC50 (MGC-803),IC50 (Histone deacetylase 1 [4]),Compound
16.7%,59.9%,–,–,–,O=C(NO)c1ccc(NCc2nc(-c3ccco3)nn2-c2ccccc2)cc1
26%,65.5%,324 nM,6110 nM,1460 nM,O=C(NO)c1ccc(NCc2nc(-c3cc4ccccc4s3)nn2-c2ccccc2)cc1
7.5%,30.8%,–,–,–,O=C(NO)c1ccc(NCc2nc(-c3ccncc3)nn2-c2ccccc2)cc1
19%,72.6%,112 nM,17700 nM,2490 nM,O=C(NO)c1ccc(NCc2nc(-c3ccccc3)nn2-c2ccccc2)cc1
18.4%,66%,388 nM,13200 nM,3850 nM,Cc1cccc(-n2nc(-c3ccccc3)nc2CNc2ccc(C(=O)NO)cc2)c1
12.9%,57.7%,–,–,–,O=C(NO)c1ccc(NCc2nc(-c3cccnc3)nn2-c2ccccc2)cc1
13.2%,54.7%,–,–,–,O=C(NO)c1ccc(NCc2nc(-c3ccc(Br)cc3)nn2-c2ccccc2)cc1
16.3%,67.6%,274 nM,10500 nM,1820 nM,O=C(NO)c1ccc(NCc2nc(-c3ccccc3)nn2-c2ccc(F)cc2)cc1
23.7%,71.1%,54.9 nM,6320 nM,2080 nM,O=C(NO)c1ccc(NCc2nc(-c3sccc3Br)nn2-c2ccccc2)cc1
24.6%,60.7%,310 nM,–,1720 nM,Cc1ccc(-n2nc(-c3ccccc3)nc2CNc2ccc(C(=O)NO)cc2)cc1
-2.6%,-4.4%,–,–,–,NC(=O)c1ccc(NCc2nc(-c3ccccc3)nn2-c2ccccc2)cc1
26.2%,63.4%,127 nM,7050 nM,883 nM,COc1ccc(-n2nc(-c3ccccc3)nc2CNc2ccc(C(=O)NO)cc2)cc1
12.8%,38.9%,–,–,–,O=C(NO)c1ccc(NCc2nc(-c3ccccc3)nn2-c2ccc(C(F)(F)F)cc2)cc1
17.3%,52.6%,–,–,–,CC(C)c1ccc(-n2nc(-c3ccccc3)nc2CNc2ccc(C(=O)NO)cc2)cc1
18%,55.4%,–,–,–,O=C(NO)c1ccc(NCc2nc(-c3ccccc3)nn2-c2ccc(Cl)cc2)cc1
13%,64.1%,281 nM,8710 nM,5520 nM,Cc1cccc(-c2nc(CNc3ccc(C(=O)NO)cc3)n(-c3ccccc3)n2)c1
17%,57.1%,–,–,–,Cc1ccccc1-n1nc(-c2ccccc2)nc1CNc1ccc(C(=O)NO)cc1
15.2%,53.4%,–,–,–,O=C(NO)c1ccc(NCc2nc(-c3ccsc3)nn2-c2ccccc2)cc1
16.5%,53.2%,–,–,–,Cc1ccccc1-c1nc(CNc2ccc(C(=O)NO)cc2)n(-c2ccccc2)n1
11.2%,40.2%,–,–,–,O=C(NO)c1ccc(NCc2nc(-c3cccc4cnccc34)nn2-c2ccccc2)cc1
26.3%,72.1%,30.7 nM,8890 nM,3200 nM,Cc1ccsc1-c1nc(CNc2ccc(C(=O)NO)cc2)n(-c2ccccc2)n1
32%,5%,–,–,–,Nc1ccccc1NC(=O)c1ccc(NCc2nc(-c3ccccc3)nn2-c2ccccc2)cc1
10.8%,38.3%,–,–,–,CCc1ccc(-n2nc(-c3ccccc3)nc2CNc2ccc(C(=O)NO)cc2)cc1
16%,58.6%,–,–,–,O=C(NO)c1ccc(NCc2nc(-c3ccccn3)nn2-c2ccccc2)cc1

inhibition (Histone deacetylase 1 [1]),inhibition [2],IC50 [3],IC50 (MGC-803),IC50 (Histone deacetylase 1 [4]),Compound
17%,64.6%,669 nM,9630 nM,3120 nM,O=C(NO)c1ccc(NCc2nc(-c3ccccc3)nn2-c2ccccc2Cl)cc1
38.4%,79.6%,33.5 nM,> 20000 nM,1500 nM,O=C(NO)c1ccc(NCc2nc(-c3cccs3)nn2-c2ccc(O)cc2)cc1
4.1%,10%,–,–,–,NNC(=O)c1ccc(NCc2nc(-c3ccccc3)nn2-c2ccccc2)cc1
4.9%,41.6%,–,–,–,O=C(NO)c1ccc(NCc2nc(-c3ccc(C(F)(F)F)cc3)nn2-c2ccccc2)cc1
22.3%,60.7%,–,–,–,Cc1ccc(-c2nc(CNc3ccc(C(=O)NO)cc3)n(-c3ccccc3)n2)o1
33.4%,77.6%,163 nM,> 20000 nM,2860 nM,COc1ccc(-c2nc(CNc3ccc(C(=O)NO)cc3)n(-c3ccccc3)n2)cc1
13.8%,55.8%,–,–,–,O=C(NO)c1ccc(NCc2nc(-c3ccc(Br)o3)nn2-c2ccccc2)cc1
11%,53%,–,–,–,Cc1ccc(-n2nc(-c3ccccc3)nc2CNc2ccc(C(=O)NO)cc2)cc1C
8.3%,39.8%,–,–,–,O=C(NO)c1ccc(NCc2nc(-c3ccc(Cl)s3)nn2-c2ccccc2)cc1
20.3%,62.2%,224 nM,> 20000 nM,3100 nM,Cc1ccc(-c2nc(CNc3ccc(C(=O)NO)cc3)n(-c3ccccc3)n2)cc1
4.3%,27.6%,–,–,–,CC(C)c1ccc(-c2nc(CNc3ccc(C(=O)NO)cc3)n(-c3ccccc3)n2)cc1
19.5%,67.2%,181 nM,5970 nM,2420 nM,O=C(NO)c1ccc(NCc2nc(-c3ccc(Cl)cc3)nn2-c2ccccc2)cc1
2.1%,-0.4%,–,–,–,O=C(O)c1ccc(NCc2nc(-c3ccccc3)nn2-c2ccccc2)cc1
14.7%,62.3%,678 nM,13700 nM,4400 nM,O=C(NO)c1ccc(NCc2nc(-c3ccccc3)nn2-c2cccc(Cl)c2)cc1
20.8%,70.9%,114 nM,8960 nM,3400 nM,O=C(NO)c1ccc(NCc2nc(-c3ccc(F)cc3)nn2-c2ccccc2)cc1
-0.55%,-3.6%,–,–,–,CNC(=O)c1ccc(NCc2nc(-c3ccccc3)nn2-c2ccccc2)cc1
15.6%,75%,185 nM,> 20000 nM,3830 nM,O=C(NO)c1ccc(NCc2nc(-c3ccccc3Cl)nn2-c2ccccc2)cc1
12.4%,49.8%,–,–,–,Cc1cc(C)cc(-n2nc(-c3ccccc3)nc2CNc2ccc(C(=O)NO)cc2)c1
25.9%,70.3%,102 nM,> 20000 nM,4300 nM,COc1ccc(-n2nc(-c3ccc(O)cc3)nc2CNc2ccc(C(=O)NO)cc2)cc1
18.2%,65.9%,1730 nM,9300 nM,3200 nM,O=C(NO)c1ccc(NCc2nc(-c3ccccc3)nn2-c2ccc(Br)cc2)cc1
13.2%,54.6%,–,–,–,CCc1ccc(-c2nc(CNc3ccc(C(=O)NO)cc3)n(-c3ccccc3)n2)cc1
17%,61.2%,115 nM,5760 nM,1870 nM,O=C(NO)c1ccc(NCc2nc(-c3cccc(Cl)c3)nn2-c2ccccc2)cc1
7.6%,34.5%,–,–,–,O=C(NO)c1ccc(NCc2nc(-c3ccc(Cl)c(Cl)c3)nn2-c2ccccc2)cc1
